# Data from patent US5741781A, “Mercaptoalkanoyldipeptide compounds” (Adir et Compagnie, priority 1995, dated 1998).
# Assays:
# [1] = target: neutral endopeptidase (NEP) (Homo sapiens, UniProt P08473); assay: Inhibitory effect in vitro on neutral endopeptidase, [3H]-D-Ala2-Leu-encephalin as substrate; assay type: biochemical; settings: in vitro
# [2] = target: peptidyldipeptidase A (ACE) (Homo sapiens, UniProt P12821); assay: Inhibitory effect in vitro on peptidyldipeptidase A, Z-Phe-His-Leu as substrate; assay type: biochemical
# Description: The inhibitory properties of the compounds of the invention are measured using [^3 H]-D-Ala^2 -Leu-encephalin as substrate for neutral endopeptidase, in accordance with the protocol described by Llorens et al. (Biochem. Biophys. Res. Commun., 96, (1980), 1710 sqq), and Z-Phe-His-Leu as substrate in the case of peptidyldipeptidase A in accordance with the protocol described in Biochem. Biophys. Acta, 206, (1970), 136-142.
# Chain of neutral endopeptidase (NEP) (P08473 whole entry, species assumed): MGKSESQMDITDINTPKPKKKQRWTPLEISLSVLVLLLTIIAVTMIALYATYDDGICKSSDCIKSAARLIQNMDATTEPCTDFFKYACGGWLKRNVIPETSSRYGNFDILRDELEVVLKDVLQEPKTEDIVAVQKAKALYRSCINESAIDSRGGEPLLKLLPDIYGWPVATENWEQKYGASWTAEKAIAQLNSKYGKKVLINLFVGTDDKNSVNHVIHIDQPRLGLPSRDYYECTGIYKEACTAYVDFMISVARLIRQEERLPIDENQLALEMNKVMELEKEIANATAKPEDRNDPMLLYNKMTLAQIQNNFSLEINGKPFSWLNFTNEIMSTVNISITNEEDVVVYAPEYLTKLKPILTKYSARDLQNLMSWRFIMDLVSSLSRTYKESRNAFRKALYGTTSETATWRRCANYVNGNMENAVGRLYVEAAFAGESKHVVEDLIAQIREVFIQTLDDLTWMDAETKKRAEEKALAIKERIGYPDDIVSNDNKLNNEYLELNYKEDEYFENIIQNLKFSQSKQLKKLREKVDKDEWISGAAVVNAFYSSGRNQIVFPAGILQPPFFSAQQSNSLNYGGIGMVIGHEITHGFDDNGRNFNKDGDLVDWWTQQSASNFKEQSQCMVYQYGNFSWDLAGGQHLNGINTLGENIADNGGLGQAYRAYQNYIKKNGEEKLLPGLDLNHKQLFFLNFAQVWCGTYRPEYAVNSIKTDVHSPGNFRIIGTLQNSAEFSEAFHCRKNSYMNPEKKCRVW
# Chain of peptidyldipeptidase A (ACE) (P12821 30-1306, species assumed): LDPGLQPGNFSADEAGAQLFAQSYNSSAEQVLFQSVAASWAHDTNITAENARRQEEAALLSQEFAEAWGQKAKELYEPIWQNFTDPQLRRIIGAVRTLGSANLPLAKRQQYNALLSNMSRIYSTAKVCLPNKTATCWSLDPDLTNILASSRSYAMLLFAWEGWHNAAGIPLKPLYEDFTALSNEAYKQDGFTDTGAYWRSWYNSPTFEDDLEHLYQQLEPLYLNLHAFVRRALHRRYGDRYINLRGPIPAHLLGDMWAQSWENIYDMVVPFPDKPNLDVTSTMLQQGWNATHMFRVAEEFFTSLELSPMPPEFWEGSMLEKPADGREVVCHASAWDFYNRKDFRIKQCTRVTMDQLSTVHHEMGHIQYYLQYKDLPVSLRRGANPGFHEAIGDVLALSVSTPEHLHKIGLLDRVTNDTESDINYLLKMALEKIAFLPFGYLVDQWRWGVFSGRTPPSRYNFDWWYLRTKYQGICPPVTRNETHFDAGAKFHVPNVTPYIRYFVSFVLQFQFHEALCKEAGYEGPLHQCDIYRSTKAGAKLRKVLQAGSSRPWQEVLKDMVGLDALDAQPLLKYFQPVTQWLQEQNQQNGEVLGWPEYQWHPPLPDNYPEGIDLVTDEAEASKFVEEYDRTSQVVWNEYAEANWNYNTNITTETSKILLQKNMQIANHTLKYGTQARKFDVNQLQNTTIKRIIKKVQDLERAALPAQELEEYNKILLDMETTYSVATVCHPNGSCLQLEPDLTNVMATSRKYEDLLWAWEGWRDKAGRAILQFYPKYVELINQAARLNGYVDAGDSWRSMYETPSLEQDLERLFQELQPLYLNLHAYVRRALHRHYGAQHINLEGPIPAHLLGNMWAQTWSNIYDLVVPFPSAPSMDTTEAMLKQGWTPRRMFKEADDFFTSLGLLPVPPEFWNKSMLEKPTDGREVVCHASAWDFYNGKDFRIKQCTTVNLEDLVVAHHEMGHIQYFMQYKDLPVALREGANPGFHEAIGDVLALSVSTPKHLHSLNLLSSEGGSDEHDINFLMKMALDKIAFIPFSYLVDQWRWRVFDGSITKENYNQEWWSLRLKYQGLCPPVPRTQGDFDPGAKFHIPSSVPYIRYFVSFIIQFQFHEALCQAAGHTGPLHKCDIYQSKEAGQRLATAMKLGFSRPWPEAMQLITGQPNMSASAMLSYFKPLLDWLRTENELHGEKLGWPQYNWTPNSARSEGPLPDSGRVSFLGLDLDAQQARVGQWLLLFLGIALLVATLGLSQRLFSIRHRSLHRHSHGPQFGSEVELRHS
smiles,measurement,setting,value
"COc1ccc(CC(S)C(=O)NCC(=O)N2C(c3ccccc3OC)CC[C@H]2C(=O)O)cc1 (some centres unmarked) [Example 28, N-[N-[2-Mercapto-3-(para-methoxyphenyl)propanoyl]glycyl]-5-(orthomethoxyphenyl)proline]",IC50,[1],2.5 ± 0.6 nM
same,IC50,[2],2.2 ± 0.2 nM
"O=C(NCC(=O)N1C(c2ccccc2)CC[C@H]1C(=O)O)C(S)Cc1ccc(O)cc1 (some centres unmarked) [Example 10, N-[N-[2-Mercapto-3-(para-hydroxyphenyl)propanoyl]glycyl]-5-phenylproline]",IC50,[1],3.4 ± 0.8 nM
same,IC50,[2],4.2 ± 0.4 nM
"O=C(NCC(=O)N1C(c2ccccc2O)CC[C@H]1C(=O)O)C(S)Cc1ccccc1 (some centres unmarked) [Example 5, N-[N-(2-Mercapto-3-phenylpropanoyl)glycyl]-5-(ortho-hydroxyphenyl)-proline]",IC50,[1],1.1 ± 0.3 nM
same,IC50,[2],0.5 ± 0.1 nM
"Cc1ccccc1C1CC[C@@H](C(=O)O)N1C(=O)CNC(=O)C(S)Cc1ccc(O)cc1 (some centres unmarked) [Example 34, N-[N-[2-Mercapto-3-(para-hydroxyphenyl)propanoyl]glycyl]-5-(ortho-methylphenyl)proline]",IC50,[1],3.1 ± 0.3 nM
same,IC50,[2],5.2 ± 0.5 nM
"O=C(NCC(=O)N1C(c2cccc(O)c2)CC[C@H]1C(=O)O)C(S)Cc1ccc(O)cc1 (some centres unmarked) [Example 18, N-[N-[2-Mercapto-3-(para-hydroxyphenyl)propanoyl]glycyl]-5-(metahydroxyphenyl)proline]",IC50,[1],1.6 ± 0.3 nM
same,IC50,[2],0.7 ± 0.2 nM
"Cc1ccccc1C1CC[C@@H](C(=O)O)N1C(=O)CNC(=O)C(S)Cc1ccccc1 (some centres unmarked) [Example 36, N-[N-(2-Mercapto-3-phenylpropanoyl)glycyl]-5-(ortho-methylphenyl)proline]",IC50,[1],4 ± 0.6 nM
same,IC50,[2],3.5 ± 0.6 nM
"COc1ccc(CC(S)C(=O)NCC(=O)N2C(c3ccccc3O)CC[C@H]2C(=O)O)cc1 (some centres unmarked) [Example 26, N-[N-[2-Mercapto-3-(para-methoxyphenyl)propanoyl]glycyl]-5-(orthohydroxyphenyl)proline]",IC50,[1],2.3 ± 0.3 nM
same,IC50,[2],0.4 ± 0.05 nM
"O=C(NCC(=O)N1C(c2ccccc2O)CC[C@H]1C(=O)O)C(S)Cc1ccc(O)cc1 (some centres unmarked) [Example 7, N-[N-[2-Mercapto-3-(para-hydroxyphenyl)propanoyl]glycyl]-5-(ortho-hydroxyphenyl)proline]",IC50,[1],4.3 ± 0.3 nM
same,IC50,[2],0.35 ± 0.05 nM
"O=C(NCC(=O)N1C(c2ccccc2)CC[C@H]1C(=O)O)C(S)Cc1ccccc1 (some centres unmarked) [Example 3, N-[N-(2-Mercapto-3-phenylpropanoyl)glycyl]-5-phenylproline]",IC50,[1],1.6 ± 0.3 nM
same,IC50,[2],0.55 ± 0.05 nM
"Nc1ccc(C2CC[C@@H](C(=O)O)N2C(=O)CNC(=O)C(S)Cc2ccc(O)cc2)cc1 (some centres unmarked) [Example 16, N-[N-[2-Mercapto-3-(para-hydroxyphenyl)propanoyl]glycyl]-5-(para-aminophenyl)proline]",IC50,[1],26 ± 3 nM
same,IC50,[2],23 ± 3 nM
"Cc1ccc(C2CC[C@@H](C(=O)O)N2C(=O)CNC(=O)C(S)Cc2ccc(O)cc2)cc1 (some centres unmarked) [Example 32, N-[N-[2-Mercapto-3-(para-hydroxyphenyl)propanoyl]glycyl]-5-(para-methylphenyl)proline]",IC50,[1],5 ± 0.5 nM
same,IC50,[2],3.2 ± 0.4 nM
"O=C(NCC(=O)N1C(c2cccc(O)c2)CC[C@H]1C(=O)O)C(S)Cc1ccccc1 (some centres unmarked) [Example 20, N-[N-(2-Mercapto-3-phenylpropanoyl)glycyl]-5-(meta-hydroxyphenyl)proline]",IC50,[1],2.4 ± 0.8 nM
same,IC50,[2],1.4 ± 0.7 nM
O=C(NCC(=O)N1C(c2ccccc2O)CC[C@H]1C(=O)O)C(S)Cc1ccc(Cl)cc1 (some centres unmarked) [Example 24],IC50,[1],1.2 ± 0.4 nM
same,IC50,[2],0.9 ± 0.06 nM
"Cc1ccc(C2CC[C@@H](C(=O)O)N2C(=O)CNC(=O)C(S)Cc2ccccc2)cc1 (some centres unmarked) [Example 30, N-[N-(2-Mercapto-3-phenylpropanoyl)glycyl]-5-(para-methylphenyl)proline]",IC50,[1],10 ± 2 nM
same,IC50,[2],8.2 ± 0.5 nM
"Nc1ccc(CC(S)C(=O)NCC(=O)N2C(c3ccccc3)CC[C@H]2C(=O)O)cc1 (some centres unmarked) [Example 14, N-[N-[2-Mercapto-3-(para-aminophenyl)propanoyl]glycyl]-5-phenylproline]",IC50,[1],1.8 ± 0.4 nM
same,IC50,[2],3.5 ± 0.5 nM
"O=C(NCC(=O)N1C(c2ccc(O)cc2)CC[C@H]1C(=O)O)C(S)Cc1ccc(O)cc1 (some centres unmarked) [Example 22, N-[N-[2-Mercapto-3-(para-hydroxyphenyl)propanoyl]glycyl]-5,(para-hydroxyphenyl)proline]",IC50,[1],6 ± 1 nM
same,IC50,[2],0.45 ± 0.05 nM
